From paper PMC7070167, “Cell‐permeable high‐affinity tracers for Gq proteins provide structural insights, reveal distinct binding kinetics and identify small molecule inhibitors” (British Journal of Pharmacology, 2020)
Like-named read-outs stand apart in the source and are kept apart here. *1 amine or outer side, *2 acyl side, *3 side chain or, on linkers, in order; H or OH if unused. Where a SMILES comes first, the peptide text is derived from it. Bridges are numbered along the chain shown (N, C = ends). [ ]: non-standard residue; d: D form. The star is where a group is joined. Leu(3R-O(AcLeu(3R-OH))) = CC(=O)N[C@H](C(=O)O[C@H](C(C)C)[C@H](N)C(=O)O)[C@H](O)C(C)C; Leu(3R-OH,Nα-propionyl) = CCC(=O)N[C@H](C(=O)*)[C@H](O)C(C)C; X1 = CC(C)[C@@H](O[*:3])[C@H](N[*:1])C(=O)[*:2]; NMeT = CN[C@H](C(=O)O)[C@@H](C)O; dPhLac = O=C(O)[C@H](O)Cc1ccccc1; NMeA = CN[C@@H](C)C(=O)O; NMeDha = C=C(NC)C(=O)O

How the values were obtained:
[1] = target: T1, human Gα14 (Homo sapiens, UniProt O95837); assay: Competition binding at membranes of HEK-CRISPR-Cas9-Gαq-KO cells expressing Gα14
T1 construct: expressed in transfected cells; membrane preparations
T1 sequence (O95837 1-355): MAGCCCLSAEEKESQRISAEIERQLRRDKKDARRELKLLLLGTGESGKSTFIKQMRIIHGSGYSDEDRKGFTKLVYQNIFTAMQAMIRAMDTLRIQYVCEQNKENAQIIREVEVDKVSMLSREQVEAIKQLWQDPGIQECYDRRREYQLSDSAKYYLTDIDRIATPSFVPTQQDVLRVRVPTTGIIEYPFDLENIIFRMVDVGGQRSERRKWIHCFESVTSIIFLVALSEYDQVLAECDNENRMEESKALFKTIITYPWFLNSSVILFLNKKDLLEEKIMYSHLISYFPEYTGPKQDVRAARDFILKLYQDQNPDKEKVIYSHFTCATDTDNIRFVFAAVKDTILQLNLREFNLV
Protocol: cDNAs encoding for the α‐subunits of the human G11, G14, G15 and mouse Gq guanine nucleotide‐binding proteins in a pcDNA3.1(+) vector were obtained from E. Kostenis. CRISPR/Cas9‐Gαq‐knockout (KO) HEK293 cells were from M. Yamaguchi. The protein sequences of the human and mouse Gαq proteins differ only by one amino acid in position 171 (alanine in human and serine in mouse). […]. After 16 hr, 3 ml of DMEM containing 10% FBS, 1% of a penicillin/streptomycin solution (final concentrations: penicillin = 100 U·ml^−1, streptomycin = 0.1 mg·ml^−1), and sodium butyrate (5 mM) was added to the packaging cells. They were kept at 32°C and 5% CO2 for 48 hr, during which the viral vectors containing the receptor sequence were produced and released into the surrounding medium. These were harvested, filtered ([…] filter pore diameter), and added to HEK293 cells that had previously been modified via CRISPR/Cas9 genome editing to lack Gαq expression. Polybrene solution (6 μl, 4 mg·ml^−1 in H2O, filtered) was added. After 2.5 hr, the virus‐containing medium was discarded, and DMEM supplemented with 10% FBS and 1% of a penicillin/streptomycin solution (final concentrations: penicillin = 100 U·ml^−1, streptomycin = 0.1 mg·ml^−1) was given to the cells. These were incubated for 2 days, followed by selection of successfully transfected cells with geneticin resistance by adding G418 (200 μg·ml^−1) to the medium. The cells were cultured in these media at 37°C and 10% CO2 until membrane preparations were generated.
Recombinant HEK cells were cultured to 70% of confluence. The culture medium was discarded, and cells were washed once with approximately 5 ml of PBS. Dishes were stored at −20°C until further use. After defrosting, cells were detached with a rubber scraper after adding 5‐mM Tris–HCl, 2‐mM EDTA, pH 7.4. The collected cell suspension was homogenized using an Ultra‐Turrax® for 1 min at a speed level of 4. The cell suspension was transferred into tubes and centrifuged for 10 min at 1,000 g, 4°C. The pellet (P1) was discarded, and the supernatant was centrifuged for 45 min at 48,400 g, 4°C. The resulting supernatant was discarded, and the pellet (P2) was resuspended in 50‐mM Tris–HCl, pH 7.4, and centrifuged again for 45 min at 48,400 g, 4°C. This step was repeated once again, and the suspension was subsequently homogenized using an Ultra‐Turrax® for 1 min at a speed level of 4 (IKA Laborechnik), transferred into cryovials, and stored at −80°C (for up to several months). […]
The experiments were performed in 50‐mM Tris–HCl buffer, pH 7.4. […] Non‐specific binding was determined in the presence of 5‐μM FR. […] Luma Safe® scintillation cocktail (2.5 ml) was added, and after 6 hr of incubation, the samples were counted for 1 min each, using a liquid scintillation counter (counting efficiency 53%). […]

[2] = test system: Gq signalling via endogenously expressed M3 receptor; assay: Calcium mobilization assay, carbachol-induced (M3 receptor) in 1321N1 astrocytoma cells; assay type: cell-based, human; details: Homo sapiens, versus Carbachol (EC80), M3 receptor, read-out: pIC50, inhibition of calcium mobilization (converted)
Protocol: The functional activity of YM, FR, and Ebselen as Gq protein inhibitors was determined by assessing their ability to antagonize ADP‐induced calcium mobilization in 1321N1 astrocytoma cells stably transfected with the human P2Y1 receptor, which is a Gq‐coupled receptor. In addition, the compounds' inhibitory effects on Carbachol‐induced calcium mobilization were studied in the same cell line, which endogenously express the Gq‐coupled muscarinic M3 ACh receptor. The assays were performed according to a previously described procedure (Rafehi et al., 2017) using a NOVOstar microplate reader (BMG Labtech, Offenburg, Germany).

| SMILES | IC50 [1] [nM] | Pseudo-Bmax ± SD ([1]; FR versus [³H]PSB-15900 (5 nM), 37°C, G14) [pmol/mg] | IC50 [2] [nM] | Pseudo-Bmax ± SD ([1]; YM versus [³H]PSB-16254 (5 nM), 37°C, G14) [pmol/mg] | IC50 ([1]; YM versus [³H]PSB-16254 (5 nM), 37°C, G14, read-out: pIC50 ± SD (converted)) [nM] |
| --- | --- | --- | --- | --- | --- |
| C=C1C(=O)N[C@@H](C)C(=O)N(C)[C@@H](C)C(=O)N[C@@H]([C@H](OC(=O)[C@@H](NC(=O)CC)[C@H](O)C(C)C)C(C)C)C(=O)N(C)[C@@H]([C@@H](C)OC)C(=O)O[C@H](C(C)C)[C@H](NC(C)=O)C(=O)O[C@H](Cc2ccccc2)C(=O)N1C [FR, FR900359] (Ac-[X1][dPhLac][NMeDha]A[NMeA][X1](Leu(3R-OH,Nα-propionyl))[NMeT](Me); ester 1-C) | 10 | 4.37 ± 0.71 | 0.741 |  |  |
| C=C1C(=O)N[C@@H](C)C(=O)N(C)[C@@H](C)C(=O)N[C@@H]([C@H](OC(=O)[C@@H](NC(C)=O)[C@H](O)C(C)C)C(C)C)C(=O)N(C)[C@@H]([C@@H](C)OC)C(=O)O[C@H](C)[C@H](NC(C)=O)C(=O)O[C@H](Cc2ccccc2)C(=O)N1C [YM, YM‐254890] (Ac-T[dPhLac][NMeDha]A[NMeA][Leu(3R-O(AcLeu(3R-OH)))][NMeT](Me); ester 1-C) |  |  | 0.891 | 3.18 ± 0.48 | 6.61 |
